These results are taken from US10745346B2, “Agonists of protein tyrosine phosphatase SHP-1” (priority 2015, dated 2020).

The structures appear in SMILES notation.

The test system of experiment [1] is PLC5 cells (a hepatocellular carcinoma cell line). Put plainly: Cytotoxicity, MTT cell viability assay. The settings on record: 72 h exposure. The class given is cell-based. The protocol: PLC5 cells (a hepatocellular carcinoma cell line) were seeded at 5×10^3 cells per well in 96-well plates. Then, cells were exposed to SC derivatives at the indicated doses for 72 h. After that, cells were incubated with MTT (1 mg/ml) (Sigma-Aldrich, St. Louis, Mo.) for 2 h at 37° C. Cell viability was then assessed by measuring the absorbance at 570 nm using a microplate reader.

For experiment [2], the target named is Recombinant SHP-1 protein (Homo sapiens, UniProt P29350). Put plainly: SHP-1 phosphatase activity assay (RediPlate 96 EnzChek Tyrosine Phosphatase Assay kit). The format is biochemical. As to conditions: SC derivatives at 1 μM for 2 hr; recombinant SHP-1 25 ng; control DMSO = 100; mean±SD (N=3). The protocol: Effects of SC Derivatives on Phosphatase Activity in Recombinant SHP-1 RediPlate 96 EnzChek Tyrosine Phosphatase Assay kit (R-22067) was used for SHP-1 activity assay (Molecular Probes). Recombinant SHP-1 protein (25 ng) was reacted with SC derivatives at 1 μM for 2 hr. Then the SHP-1 phosphatase activity assay was performed according to the user's manual and the absorbance was measured at 465 nm. The control group was DMSO, which functioned as the solvent of the SC derivatives. The values were expressed by mean±SD (N=3).
Recombinant SHP-1 protein, sequence (P29350 whole entry): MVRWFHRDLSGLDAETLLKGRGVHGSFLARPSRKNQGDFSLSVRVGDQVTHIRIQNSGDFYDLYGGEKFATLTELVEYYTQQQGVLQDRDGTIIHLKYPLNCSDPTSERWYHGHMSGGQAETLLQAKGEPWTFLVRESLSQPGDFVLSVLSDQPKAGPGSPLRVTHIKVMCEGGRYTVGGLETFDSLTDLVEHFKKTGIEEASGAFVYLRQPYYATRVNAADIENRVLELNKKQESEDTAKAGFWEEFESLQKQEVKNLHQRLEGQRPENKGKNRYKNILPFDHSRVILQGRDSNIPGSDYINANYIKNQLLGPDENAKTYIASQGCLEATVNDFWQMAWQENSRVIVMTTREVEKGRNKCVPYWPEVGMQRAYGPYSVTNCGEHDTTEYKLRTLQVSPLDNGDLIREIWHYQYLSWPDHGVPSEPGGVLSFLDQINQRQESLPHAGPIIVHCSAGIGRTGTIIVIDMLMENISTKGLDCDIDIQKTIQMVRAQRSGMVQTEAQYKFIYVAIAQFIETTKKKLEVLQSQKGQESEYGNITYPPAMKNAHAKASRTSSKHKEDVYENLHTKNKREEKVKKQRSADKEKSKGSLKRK

By IC50 is commonly meant the concentration that inhibits the measured activity by half. High values mean lower potency, low ones higher potency. On to `C#Cc1cccc(NC(=O)Nc2cccc(Oc3ccc(C#N)cc3)c2)c1` [compound 65, 1-(3-(4-cyanophenoxy)phenyl)-3-(3-ethynylphenyl)urea], for which half-maximal inhibition in experiment [1] (IC50) was put at 1410 nM. For the same molecule, the “SHP-1 Activity (% of control)” value in experiment [2] is 84.35 ± 22.40 % of control.
The corresponding values for `C#Cc1cccc(NC(=O)Nc2ccc(C)c(Oc3ccc(C#N)cc3)c2)c1` [compound 66, 1-(3-(4-cyanophenoxy)-4-methylphenyl)-3-(3-ethynylphenyl)urea] are more than 10000 nM and 93.26 ± 9.30 % of control.
For `N#Cc1ccc(Oc2cccc(NC(=O)C3(C(=O)Nc4cccc(Oc5ccc(C#N)cc5)c4)CC3)c2)cc1` [compound 67, N, N′-bis(3-(4-cyanophenoxy)phenyl)cyclopropane-1,1-dicarboxamide], the IC50 in experiment [1] was more than 10000 nM. In experiment [2], the “SHP-1 Activity (% of control)” value is 94.05 ± 16.11 % of control.
As to `Cc1ccc(NC(=O)C2(C(=O)O)CC2)cc1Oc1ccc(C#N)cc1` [compound 68], the concentration for half-maximal inhibition (IC50) in experiment [1] is more than 10000 nM. In addition, in experiment [2], the “SHP-1 Activity (% of control)” value was 84.36 ± 11.31 % of control.
In the same order, the values of `N#Cc1ccc(Oc2cccc(NC(=O)C(=O)Nc3ccc(Cl)c(C(F)(F)F)c3)c2)cc1` [compound 69, N^1-(4-chloro-3-(trifluoromethyl)phenyl)-N^2-(3-(4-cyanophenoxy)phenyl) oxalamide] are more than 10000 nM and 95.16 ± 6.91 % of control.
As for `N#CC1=CCC(OC2=CC(NC(=O)C(=O)Nc3cccc(Oc4ccc(C#N)cc4)c3)CC=C2)C=C1` (stereo not shown) [compound 70, N^1-(3-((4-cyanocyclohexa-2,4-dien-1-yl)oxy)cyclohexa-2,4-dien-1-yl)-N^2-(3-(4-cyanophenoxy)phenyl)oxalamide], the IC50 in experiment [1] is more than 10000 nM. In addition, the “SHP-1 Activity (% of control)” value in experiment [2] is 91.23 ± 15.95 % of control.
`CC1=CCC(NC(=O)C(=O)Nc2ccc(C)c(Oc3ccc(C#N)cc3)c2)C=C1OC1C=CC(C#N)=CC1` (stereo not shown) [compound 71, N^1-(3-((4-cyanocyclohexa-2,4-dien-1-yl)oxy)-4-methylcyclohexa-2,4-dien-1-yl)-N^2-(3-(4-cyanophenoxy)-4-methylphenyl)oxalamide] gave an IC50 in experiment [1] of 210 nM. The “SHP-1 Activity (% of control)” value in experiment [2] is given as 87.54 ± 10.21 % of control.
For the molecule `N#Cc1ccc(Oc2ccc3cccc(NC(=O)Nc4ccc(Cl)c(C(F)(F)F)c4)c3c2)cc1` [compound 72, 1-(4-chloro-3-(trifluoromethyl)phenyl)-3-(7-(4-cyanophenoxy)naphthalen-1-yl)urea], the IC50 in experiment [1] is 2250 nM. Moreover, in experiment [2], the “SHP-1 Activity (% of control)” value was 131.47 ± 14.99 % of control.
In the same order, the values of `N#Cc1ccc(Oc2ccc3cccc(NC(=O)Nc4cccc5ccc(Oc6ccc(C#N)cc6)cc45)c3c2)cc1` [compound 73, 1,3-bis(7-(4-cyanophenoxy)naphthalen-1-yl)urea] are more than 10000 nM and 102.24 ± 17.36 % of control.
In the case of `N#Cc1ccc(Oc2ccc3cccc(NC(=O)C4(C(=O)O)CC4)c3c2)cc1` [compound 75, 1-((7-(4-cyanophenoxy)naphthalen-1-yl)carbamoyl)cyclopropane carboxylic acid], the IC50 in experiment [1] was more than 10000 nM. The “SHP-1 Activity (% of control)” value in experiment [2] is listed as 111.30 ± 9.50 % of control.
Take `O=C(Nc1ccc(Cl)c(C(F)(F)F)c1)Nc1ccc(Cl)c(C(F)(F)F)c1` [compound 78, 1,3-bis(4-chloro-3-(trifluoromethyl)phenyl)urea]: in experiment [1], the IC50 is more than 10000 nM. In addition, the “SHP-1 Activity (% of control)” value in experiment [2] is 113.65 ± 13.93 % of control.
Consider `N#Cc1ccc(Oc2cccc(NC(=O)Nc3ccc(Cl)c(C(F)(F)F)c3)c2)cc1Cl` [compound 79, 1-(4-chloro-3-(trifluoromethyl)phenyl)-3-(3-(3-chloro-4-cyanophenoxy)phenyl)urea], for which the IC50 in experiment [1] was determined as 820 nM. For the same molecule, the “SHP-1 Activity (% of control)” value in experiment [2] is given as 112.25 ± 0.60 % of control.
In experiment [1], `N#Cc1ccc(Oc2cccc(NC(=O)Nc3ccc(Cl)c(C(F)(F)F)c3)c2)c(F)c1` [compound 80, 1-(4-chloro-3-(trifluoromethyl)phenyl)-3-(3-(4-cyano-2-fluorophenoxy)phenyl) urea] gave an IC50 of 1670 nM. In addition, the “SHP-1 Activity (% of control)” value in experiment [2] is “X91.93 ± 8.09 % of control”.
In the same order, the values of `Cc1ccc(NC(=O)Nc2ccc(C)c(Oc3ccc(C#N)c(Cl)c3)c2)cc1Oc1ccc(C#N)c(Cl)c1` [compound 82, 1,3-bis(3-(3-chloro-4-cyanophenoxy)-4-methylphenyl)urea] are 4140 nM and 92.68 ± 5.66 % of control.
In experiment [1], `Cc1ccc(NC(=O)Nc2ccc(C)c(Oc3ccc(C#N)c(Br)c3)c2)cc1Oc1ccc(C#N)c(Br)c1` [compound 83, 1,3-bis(3-(3-bromo-4-cyanophenoxy)-4-methylphenyl)urea] showed an IC50 of 250 nM. For the same molecule, in experiment [2], the “SHP-1 Activity (% of control)” value is given as 110.68 ± 13.38 % of control.
The corresponding values for `Cc1ccc(NC(=O)Nc2ccc(C)c(Oc3ccc(C#N)c(F)c3)c2)cc1Oc1ccc(C#N)c(F)c1` [compound 84, 1,3-bis(3-(4-cyano-3-fluorophenoxy)-4-methylphenyl)urea] are more than 10000 nM and 108.62 ± 10.55 % of control.
Molecule `Cc1ccc(NC(=O)Nc2ccc(C)c(Oc3ccc(C#N)cc3F)c2)cc1Oc1ccc(C#N)cc1F` [compound 85, 1,3-bis(3-(4-cyano-2-fluorophenoxy)-4-methylphenyl)urea] had an IC50 in experiment [1] of more than 10000 nM. The “SHP-1 Activity (% of control)” value in experiment [2] was 91.42 ± 10.47 % of control.
Consider `Cc1ccc(NC(=O)Nc2ccc(C)c(Oc3ccc(C#N)nc3)c2)cc1Oc1ccc(C#N)nc1` [compound 86, 1,3-bis(3-((6-cyanopyridin-3-yl)oxy)-4-methylphenyl)urea], for which, in experiment [1], the IC50 was more than 10000 nM. Moreover, the “SHP-1 Activity (% of control)” value in experiment [2] is listed as 81.06 ± 7.61 % of control.
The corresponding values for `Cc1ccc(NC(=O)Nc2ccc(Cl)c(C(F)(F)F)c2)cc1Oc1ccc(C#N)nc1` [compound 87, 1-(4-chloro-3-(trifluoromethyl)phenyl)-3-(3-((6-cyanopyridin-3-yl)oxy)-4-methylphenyl)urea] are 970 nM and 264.67 ± 32.11 % of control.
Turning to `Cc1ccc(NC(=O)Nc2ccc(Cl)c(C(F)(F)F)c2)cc1Oc1ccc(C#N)c(F)c1` [compound 88, 1-(4-chloro-3-(trifluoromethyl)phenyl)-3-(3-(4-cyano-3-fluorophenoxy)-4-methylphenyl)urea], it took 1050 nM to reach half-maximal inhibition in experiment [1] (IC50). Moreover, in experiment [2], the “SHP-1 Activity (% of control)” value was 100.48 ± 13.31 % of control.
The corresponding values for `Cc1ccc(NC(=O)Nc2ccc(Cl)c(C(F)(F)F)c2)cc1Oc1ccc(C#N)c(Br)c1` [compound 89, 1-(3-(3-bromo-4-cyanophenoxy)-4-methylphenyl)-3-(4-chloro-3-(trifluoromethyl)phenyl)urea] are 830 nM and 143.45 ± 15.17 % of control.
The corresponding values for `Cc1cc(Oc2ccc(C#N)cc2)ccc1NC(=O)Nc1ccc(Oc2ccc(C#N)cc2)cc1C` [compound 90, 1,3-bis(4-(4-cyanophenoxy)-2-methylphenyl)urea] are more than 10000 nM and 95.78 ± 10.66 % of control.
As to `N#Cc1ccc(Oc2ccc(Cl)c(NC(=O)Nc3cc(Oc4ccc(C#N)cc4)ccc3Cl)c2)cc1` [compound 91, 1,3-bis(2-chloro-5-(4-cyanophenoxy)phenyl)urea], the IC50 in experiment [1] was more than 10000 nM. Besides, in experiment [2], the “SHP-1 Activity (% of control)” value is recorded as 99.99 ± 4.52 % of control.
In experiment [1], `N#Cc1ccc(Oc2cc(NC(=O)Nc3ccc(Cl)c(Oc4ccc(C#N)cc4)c3)ccc2Cl)cc1` [compound 92, 1,3-bis(4-chloro-3-(4-cyanophenoxy)phenyl)urea] came in with an IC50 of more than 10000 nM. The “SHP-1 Activity (% of control)” value in experiment [2] is given as 252.27 ± 10.78 % of control.
In turn, `Cc1ccc(Oc2ccc(C#N)cc2)cc1NC(=O)Nc1cc(Oc2ccc(C#N)cc2)ccc1C` [compound 93, 1,3-bis(5-(4-cyanophenoxy)-2-methylphenyl)urea] registered an IC50 in experiment [1] of more than 10000 nM. The “SHP-1 Activity (% of control)” value in experiment [2] is listed as 94.07 ± 0.82 % of control.
`Cc1ccc(NC(=O)Nc2ccc(C)c(Oc3ccc(/C(N)=N/O)cc3)c2)cc1Oc1ccc(/C(N)=N/O)cc1` [compound 94, (1Z,1′Z)-4,4′-(((carbonylbis(azanediyl))bis(2-methyl-5,1-phenylene))bis(oxy))bis(N′-hydroxybenzimidamide)] registered an IC50 in experiment [1] of more than 10000 nM. The “SHP-1 Activity (% of control)” value in experiment [2] is reported as 114.65 ± 13.55 % of control.
As to `N#Cc1ccc(Oc2ccc(NC(=O)Nc3ccc(Cl)c(C(F)(F)F)c3)c(F)c2)cc1` [compound 96, 1-(4-chloro-3-(trifluoromethyl)phenyl)-3-(4-(4-cyanophenoxy)-2-fluorophenyl)urea], the IC50 in experiment [1] was determined as 410 nM. The “SHP-1 Activity (% of control)” value in experiment [2] is 194.52 ± 17.89 % of control.
In the same order, the values of `N#Cc1ccc(Oc2ccc(F)c(NC(=O)Nc3cc(Oc4ccc(C#N)cc4)ccc3F)c2)cc1` [compound 97, 1,3-bis(5-(4-cyanophenoxy)-2-fluorophenyl)urea] are more than 10000 nM and 127.01 ± 9.02 % of control.
The corresponding values for `Cc1cc(Oc2cc(NC(=O)Nc3ccc(C)c(Oc4ccc(C#N)c(C)c4)c3)ccc2C)ccc1C#N` [compound 98, 1,3-bis(3-(4-cyano-3-methylphenoxy)-4-methylphenyl)urea] are 140 nM and 88.80 ± 14.30 % of control.
